Columns and labels:
[1] = DPV detection of cleaved redox labels in RPA reactions (peak potential and current); format: physicochemical; details: for E (DPV peak potential of cleaved label) / ΔE vs MB: label cleaved from Fpg probe in RPA, DPV
Protocol: DNA and RNA amplification by RPA can be monitored in real-time or by end-product detection using the TwistAmp® basic kit with DPV detection. Briefly, a clinical sample (e.g., a clinical swab or wipe) is added to an RPA reagent mixture specific for a target nucleic acid sequence, the reagent mixture containing an Exo or Fpg oligonucleotide probe labeled with a redox-moiety, such as those described above, and maintained at 37° C.-42° C. for a time sufficient for amplification. Incubation in the presence of an ExoIII or Fpg exonuclease results in cleavage of probe/target DNA hybrids which allows for liberation of the redox-moiety (see FIG. 14). The liberated redox-moiety can be detected by, for example, amperometry, voltammetry (e.g., Differential Pulse voltammetry), and AC-impedance. Where the redox label has been cleaved from the probe/target complex (i.e., a sample positive for the target nucleic acid) a peak in current is observed at a voltage which corresponds to the oxidation potential of the label. Where the redox label has not been released from the oligonucleotide probe (i.e., a sample negative for the target nucleic acid), no peak is observed.
A “DPV output” of a given RPA reaction is determined by measuring the signal current generated by the redox-label present in the reaction in response to applied potentials. The DPV procedure requires the definition of several key parameters: interval period (related to scan rate), step potential, amplitude of the pulse (amp) and time of the pulse (pulse width). An example of these settings were: interval period 0.1 s, step potential 5 mV, pulse amplitude 75 mV and pulse width 30 ms. In addition to these parameters for the actual measurement, the DPV protocol also entails a series of 3 initial sequences of potential changes (“sweeps”) the output of which is not being directly quantified.
At FIG. 1, a method for electrochemical detection of an amplified nucleic acid target sequence according to an embodiment of the present invention is show. […] In the presence of the target, multiple copies of the DNA strand complementary to the labeled oligonucleotide probe are generated using a nucleic acid amplification method, such as, for example, PCR, RPA (shown), or NEAR. Following amplification, the DNA strand complementary to the labeled oligonucleotide probe anneal (i.e., hybridize) with the probe and form a double-stranded substrate. In the presence of a nuclease, the redox moiety (i.e., redox label) is enzymatically cleaved from (e.g., separated from) from the double-stranded substrate effecting release of the redox label. Once cleaved, the redox moiety (i.e., redox label) is able to diffuse and interact with the electrode and detection of the redox moiety is achieved by, for example, DPV, whereby a potential window (E) is swept in a stepwise fashion, and the Faradaic current (I) associated with reduction of the label is recorded. Diffusing redox labels that have been enzymatically released from oligonucleotide probes generate a larger current response, thus enabling electrochemical detection of target amplification.
For example, during initial studies on Alere HeartCheck electrodes, redox moieties with a reduction potential (versus a Ag/AgCl reference electrode) of between approximately […] were considered optimal for multiplexing (FIG. 2). In order to resolve two redox moieties which fall within this window, a difference (ΔE) of approximately ≥50 mV in their peak potential is predicted to be sufficient. Thus, in the case of the HeartCheck electrode, there is a theoretical maximum multiplexing capacity of 5 labels within this window. Note however that alternative (electrode-dependent) windows for detection may be determined.

[2] = test system: InfA[PA] and InfB[PA] DNA; experiment: Duplexed RPA detection with 1:1 mixture of MB- and PZ9-labelled probes on HeartCheck sensor; parameters: species or system Influenza A and Influenza B; details: duplexed detection at 15 min, 10^7 copies of each target, third order polynomial baseline correction
[3] = Aqueous solubility of redox label; format: physicochemical

Row | SMILES | reduction peak potential ([1]; vs Ag/AgCl during DPV in an RPA context) [mV] | Emax of calculated Gaussian curve [2] [V] | E (DPV peak potential of cleaved label) [1] [V] | ΔE vs MB [1] | aqueous solubility [3]
1 | CN(C)c1ccc2nc3ccc(N(C)C)cc3[s+]c2c1.[Cl-] [Methylene Blue, 3,7-bis(Dimethylamino)-phenothiazin-5-ium chloride] | −320 | −0.3731 |  |  | 
2 | C[N+](C)=c1ccc2nc3c(cc(NCCC(=O)O)c4ccccc43)oc-2c1.[Cl-] [PO1, N-(5-(2-carboxyethylamino)-9H-benzo[a]phenoxazin-9-ylidene)-N-methylmethanaminium chloride] |  |  | ~−0.52 | ~−140 mV | 
3 | CC/[N+](CCCS(=O)(=O)[O-])=c1/ccc2nc3ccc(N(C)CCC(=O)O)cc3oc-2c1 [PO2, N-(3-(N-methyl(2-carboxyethyl)amino)phenoxazin-7-ylidene)-N-ethyl(3-sulfonatopropyl)aminium chloride] |  |  | ~−0.44 | ~−60 mV | good aqueous solubility
4 | CN(CCCC(=O)O)c1ccc2nc3ccc(N(C)c4ccccc4)cc3[s+]c2c1.[Cl-] [PZ9] |  | −0.3046 |  | ~+60 mV | 

— US12275985B2, “Redox labeled oligonucleotide probes and their use” (ABBOTT DIAGNOSTICS SCARBOROUGH, INC., priority 2016, dated 2025)
